Among the data in paper PMC11372076, “A dual inhibitor of PIP5K1C and PIKfyve prevents SARS-CoV-2 entry into cells” (Experimental & Molecular Medicine, 2024) are pseudotyped virus entry values, retold here.

In assay [1] the test system is Delta variant (B.1.617.2) spike-pseudotyped virus. Type of assay: cell-based, SARS-CoV-2.
The test system of assay [2] is Omicron variant (BA.1) spike-pseudotyped virus. Type of assay: cell-based, SARS-CoV-2.

With `c1ccc(-c2cc(Nc3nc(-c4ccncc4)nc4ccccc34)n[nH]2)cc1` [UNI418, N -(5-phenyl-1 H -pyrazol-3-yl)-2-(4-pyridinyl)-4-quinazolinamine], the pseudotyped virus entry result in assay [1] and in assay [2] was “markedly inhibited” throughout.
